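96-well plates; 48 h exposure; 5 concentrations. Endpoints by linear interpolation between flanking doses. Not reached: highest tested concentration assigned. GI50: concentration for 50% inhibition of growth. TGI: concentration producing complete growth inhibition.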
Assays:
Experiment in all cases: NCI anticancer screen, dose series, 48 h
786-0 renal = test system: 786-0 renal
A549 NSCLC = test system: A549 NSCLC
ACHN renal = test system: ACHN renal
BT-549 breast = test system: BT-549 breast
CAKI-1 renal = test system: CAKI-1 renal
COLO 205 colon = test system: COLO 205 colon
DU-145 prostate = test system: DU-145 prostate
EKVX NSCLC = test system: EKVX NSCLC
HCT-116 colon = test system: HCT-116 colon
HCT-15 colon = test system: HCT-15 colon
HL-60(TB) leukemia = test system: HL-60(TB) leukemia
HOP-62 NSCLC = test system: HOP-62 NSCLC
HOP-92 NSCLC = test system: HOP-92 NSCLC
HS 578T breast = test system: HS 578T breast
IGROV1 ovarian = test system: IGROV1 ovarian
K-562 leukemia = test system: K-562 leukemia
KM12 colon = test system: KM12 colon
LOX IMVI melanoma = test system: LOX IMVI melanoma
M14 melanoma = test system: M14 melanoma
MDA-MB-231 breast = test system: MDA-MB-231 breast
MDA-MB-435 = test system: MDA-MB-435
MOLT-4 leukemia = test system: MOLT-4 leukemia
NCI-H226 lung = test system: NCI-H226 lung
NCI-H460 lung = test system: NCI-H460 lung
NCI-H522 lung = test system: NCI-H522 lung
NCI/ADR-RES ovarian = test system: NCI/ADR-RES ovarian
OVCAR-3 ovarian = test system: OVCAR-3 ovarian
OVCAR-4 ovarian = test system: OVCAR-4 ovarian
OVCAR-5 ovarian = test system: OVCAR-5 ovarian
PC-3 prostate = test system: PC-3 prostate
RPMI-8226 leukemia = test system: RPMI-8226 leukemia
SF-268 CNS = test system: SF-268 CNS
SF-295 CNS = test system: SF-295 CNS
SK-MEL-2 melanoma = test system: SK-MEL-2 melanoma
SK-MEL-5 melanoma = test system: SK-MEL-5 melanoma
SK-OV-3 ovarian = test system: SK-OV-3 ovarian
SN12C renal = test system: SN12C renal
SNB-19 CNS = test system: SNB-19 CNS
SNB-75 CNS = test system: SNB-75 CNS
SR leukemia = test system: SR leukemia
SW-620 colon = test system: SW-620 colon
T-47D breast = test system: T-47D breast
TK-10 renal = test system: TK-10 renal
U251 CNS = test system: U251 CNS
UACC-257 melanoma = test system: UACC-257 melanoma
UACC-62 melanoma = test system: UACC-62 melanoma
UO-31 renal = test system: UO-31 renal

SMILES: CC1=C(C(=O)Nc2ccc(Cl)c(Cl)c2)C(c2ccccc2Cl)NC(=S)N1 (centres undefined)
- GI50 (786-0 renal): 10.2 µM
- TGI (786-0 renal): 20 µM
- GI50 (A549 NSCLC): 24.1 µM
- TGI (A549 NSCLC): > 50 µM
- GI50 (ACHN renal): 10.9 µM
- TGI (ACHN renal): 25.2 µM
- GI50 (BT-549 breast): 39.4 µM
- TGI (BT-549 breast): > 50 µM
- GI50 (CAKI-1 renal): 9.85 µM
- TGI (CAKI-1 renal): 21.5 µM
- GI50 (COLO 205 colon): 8.01 µM
- TGI (COLO 205 colon): 22.2 µM
- GI50 (DU-145 prostate): 11.9 µM
- TGI (DU-145 prostate): > 50 µM
- GI50 (EKVX NSCLC): 9.09 µM
- TGI (EKVX NSCLC): 19 µM
- GI50 (HCT-116 colon): 6.23 µM
- TGI (HCT-116 colon): 12.5 µM
- GI50 (HCT-15 colon): 7.8 µM
- TGI (HCT-15 colon): 19 µM
- GI50 (HL-60(TB) leukemia): 15.4 µM
- TGI (HL-60(TB) leukemia): > 50 µM
- GI50 (HOP-62 NSCLC): 12.4 µM
- TGI (HOP-62 NSCLC): 22.7 µM
- GI50 (HOP-92 NSCLC): 1.15 µM
- TGI (HOP-92 NSCLC): 9.02 µM
- GI50 (HS 578T breast): 6.38 µM
- TGI (HS 578T breast): 13.9 µM
- GI50 (IGROV1 ovarian): 22.5 µM
- TGI (IGROV1 ovarian): > 50 µM
- GI50 (K-562 leukemia): 11 µM
- TGI (K-562 leukemia): > 50 µM
- GI50 (KM12 colon): 8.71 µM
- TGI (KM12 colon): 17.6 µM
- GI50 (LOX IMVI melanoma): > 50 µM
- TGI (LOX IMVI melanoma): > 50 µM
- GI50 (M14 melanoma): 11.6 µM
- TGI (M14 melanoma): 26.9 µM
- GI50 (MDA-MB-231 breast): 7.15 µM
- TGI (MDA-MB-231 breast): 17.3 µM
- GI50 (MDA-MB-435): 8.08 µM
- TGI (MDA-MB-435): 16.2 µM
- GI50 (MOLT-4 leukemia): 8.92 µM
- TGI (MOLT-4 leukemia): > 50 µM
- GI50 (NCI-H226 lung): 10.1 µM
- TGI (NCI-H226 lung): 25.7 µM
- GI50 (NCI-H460 lung): 6.58 µM
- TGI (NCI-H460 lung): 13.7 µM
- GI50 (NCI-H522 lung): 13.6 µM
- TGI (NCI-H522 lung): 24.9 µM
- GI50 (NCI/ADR-RES ovarian): 9.62 µM
- TGI (NCI/ADR-RES ovarian): 19.7 µM
- GI50 (OVCAR-3 ovarian): 10.5 µM
- TGI (OVCAR-3 ovarian): 20.6 µM
- GI50 (OVCAR-4 ovarian): 23.6 µM
- TGI (OVCAR-4 ovarian): > 50 µM
- GI50 (OVCAR-5 ovarian): 13.6 µM
- TGI (OVCAR-5 ovarian): 41.9 µM
- GI50 (PC-3 prostate): 8.08 µM
- TGI (PC-3 prostate): 23.3 µM
- GI50 (RPMI-8226 leukemia): 4.18 µM
- TGI (RPMI-8226 leukemia): 24 µM
- GI50 (SF-268 CNS): 5.62 µM
- TGI (SF-268 CNS): 12.5 µM
- GI50 (SF-295 CNS): 9.46 µM
- TGI (SF-295 CNS): 22 µM
- GI50 (SK-MEL-2 melanoma): 14.6 µM
- TGI (SK-MEL-2 melanoma): 25.2 µM
- GI50 (SK-MEL-5 melanoma): 7.96 µM
- TGI (SK-MEL-5 melanoma): 15.1 µM
- GI50 (SK-OV-3 ovarian): 12.5 µM
- TGI (SK-OV-3 ovarian): > 50 µM
- GI50 (SN12C renal): 8.53 µM
- TGI (SN12C renal): 15.8 µM
- GI50 (SNB-19 CNS): 0.695 µM
- TGI (SNB-19 CNS): 12.8 µM
- GI50 (SNB-75 CNS): 5.48 µM
- TGI (SNB-75 CNS): 29.2 µM
- GI50 (SR leukemia): 11.7 µM
- TGI (SR leukemia): > 50 µM
- GI50 (SW-620 colon): 10.8 µM
- TGI (SW-620 colon): 24.4 µM
- GI50 (T-47D breast): 18.9 µM
- TGI (T-47D breast): > 50 µM
- GI50 (TK-10 renal): 10.1 µM
- TGI (TK-10 renal): 22.6 µM
- GI50 (U251 CNS): 11.9 µM
- TGI (U251 CNS): 26.8 µM
- GI50 (UACC-257 melanoma): 14.5 µM
- TGI (UACC-257 melanoma): 26.8 µM
- GI50 (UACC-62 melanoma): 8.01 µM
- TGI (UACC-62 melanoma): 18.9 µM
- GI50 (UO-31 renal): 8.06 µM
- TGI (UO-31 renal): 16.7 µM

Reference: PubChem BioAssay (NCI)
